Assay results as given in US12016918B2, “Peptide-containing adjuvant compounds having peg spacers” (UNIVERSITEIT LEIDEN, priority 2017, dated 2024).
Non-standard residues stand in square brackets, D forms with d. *: point of attachment. O(CH2CH2O)3CH2C(O) = O=C(COCCOCCOCCO)*; AEEEA = NCCOCCOCCOCC(=O)O; Carbamoyl = NC(=O)*; Cy5 = Cy5 label

How the values were obtained:
Type in all cases: cell-based
[1] = test system: human monocyte-derived dendritic cells; experiment: Activation of human dendritic cells (IL-12 cytokine secretion by ELISA); details: human DCs stimulated with titrated amounts of compound; IL-12 by ELISA; FIG. 2B/3B
Excerpt: One representative from three independent experiments is shown (error bars represent SD);
DCs were stimulated with titrated amounts of test compounds or controls. Supernatants were harvested and analyzed for IL-12 cytokine secretion by ELISA as in FIG. 2B;

mouse D1-cells = experiment: Uptake by mouse D1-cells (confocal laser scanning microscopy); details: 1 μM, 15 min incubation; Cy5-labeled conjugate; endo-lysosomal compartments; FIG. 4B
Description: The cells were incubated for 15 min with compound 10 (1 μM). The uptake and localization of the compounds were analyzed with confocal laser scanning microscopy. The images are representative for multiple cells in at least 3 experiments.

human TLR2 = biological target: T1, human TLR2 (Homo sapiens, UniProt O60603); experiment: HEK293-TLR2 activation assay (IL-8 production); details: for activation of TLR2 HEK cells (human IL-8 production via TLR-2): HEK TLR-2 cells incubated with titrated amounts of compound, IL-8 in supernatant by ELISA, FIG. 2A/3A; for TLR2-mediated bio-activity compared to reference ligands: compared to compound 1 and 5 and chirally pure Pam3CSK4 (Pam-R), HEK TLR2 cells and human DC, FIG. 2
T1 construct: host or cells: HEK293
Description: (a) HEK TLR-2 cells were incubated with titrated amounts of test compounds or controls for 24 h;
The HEK-TLR2 reporter cell line and HEK293 cells stably transfected with human TLR2 were obtained from Invivogen, Toulouse, France. HEK-TLR2 cells were cultured in complete IMDM medium, supplemented with 500 μg/mL Geneticin. Test compounds were titrated in a flat-bottom 96-well plate (Corning, Amsterdam, The Netherlands) in complete IMDM medium to which 20 000 HEK-TLR2 cells per well were added. After 48 h of incubation at 37° C., the supernatant was taken from the wells for ELISA analysis (BioLegend, San Diego, CA) to determine the amount of IL-8 that was produced as a measure for TLR2-mediated activation.

human moDC = experiment: Uptake by human moDC (confocal laser scanning microscopy); details: 1 μM, 15 min incubation; Cy5-labeled conjugate; endo-lysosomal compartments; FIG. 4A
Description: The cells were incubated for 15 min with compound 10 (1 μM). The uptake and localization of the compounds were analyzed with confocal laser scanning microscopy. The images are representative for multiple cells in at least 3 experiments; and […]

T1 sequence (O60603 21-784): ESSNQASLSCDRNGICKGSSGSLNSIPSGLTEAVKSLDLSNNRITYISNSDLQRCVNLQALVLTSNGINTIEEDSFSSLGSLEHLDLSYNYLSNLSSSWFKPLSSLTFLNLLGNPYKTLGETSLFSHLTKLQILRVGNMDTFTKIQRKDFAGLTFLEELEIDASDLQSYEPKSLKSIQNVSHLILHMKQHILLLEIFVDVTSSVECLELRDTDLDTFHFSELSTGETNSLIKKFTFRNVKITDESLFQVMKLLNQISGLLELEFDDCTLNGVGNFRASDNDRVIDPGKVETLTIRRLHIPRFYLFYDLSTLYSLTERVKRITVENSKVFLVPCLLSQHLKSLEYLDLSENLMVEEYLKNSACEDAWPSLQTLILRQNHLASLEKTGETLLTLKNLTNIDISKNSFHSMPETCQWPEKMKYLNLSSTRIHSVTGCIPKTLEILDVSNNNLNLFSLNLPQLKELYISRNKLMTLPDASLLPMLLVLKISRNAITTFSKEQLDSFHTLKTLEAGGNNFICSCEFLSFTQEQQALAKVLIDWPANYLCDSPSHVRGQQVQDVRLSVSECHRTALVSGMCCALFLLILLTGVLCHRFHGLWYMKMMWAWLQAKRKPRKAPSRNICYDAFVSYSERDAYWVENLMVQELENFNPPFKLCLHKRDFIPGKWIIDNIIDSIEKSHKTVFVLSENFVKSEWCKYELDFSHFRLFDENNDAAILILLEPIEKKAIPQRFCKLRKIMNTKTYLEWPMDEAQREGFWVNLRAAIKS

Row | activation of TLR2 HEK cells (human IL-8 production via TLR-2) (human TLR2) | TLR2-mediated bio-activity compared to reference ligands (human TLR2) | Compound | activation of human monocyte-derived dendritic cells (IL-12 secretion) [1] | dendritic cell uptake, murine (mouse D1-cells) | dendritic cell uptake, human (human moDC)
1 | intact bio-activity |  | NH2C(O)NH-Cys(EtOC(O)C15H31)-Ser(OH)—O(CH2CH2O)3CH2C(O)NH-DEVSGLEQLESIINFEK(^Cy5)L-OH ({Carbamoyl-Cys(EtOC(O)C15H31)-Ser-O(CH2CH2O)3CH2C(O)}-DEVSGLEQLESIINFEK(Cy5)L-OH) [Compound 10, Cy5 fluorophore-labeled conjugate from 27] | intact bio-activity | efficient engulfment | efficient engulfment
2 | excellent capacity to activate | improved | CCCCCCCCCCCCCCCC(=O)OCCSCC[C@H](NC(N)=O)C(=O)N[C@@H](CO)C(=O)NCCOCCOCCOCC(=O)O [Compound 7, (14S,17 S)-14-(hydroxymethyl)-13,16,24-trioxo-17-ureido-3,6,9,23-tetraoxa-20-thia-12,15-diazanonatriacontanoic acid] | excellent capacity to activate |  | 

The next lines start with the compound.

Row | Compound | activation of TLR2 HEK cells (human IL-8 production via TLR-2) (human TLR2) | TLR2-mediated bio-activity compared to reference ligands (human TLR2) | activation of human monocyte-derived dendritic cells (IL-12 secretion) [1] | dendritic cell uptake, murine (mouse D1-cells) | dendritic cell uptake, human (human moDC)
3 | CCCCCCCCCCCCCCCC(=O)OCCSCC[C@H](NC(N)=O)C(=O)N[C@@H](CO)C(=O)OCCOCCOCCOCC(=O)O [Compound 6, (14S,17S)-14-(hydroxymethyl)-13,16,24-trioxo-17-ureido-3,6,9,12,23-pentaoxa-20-thia-15-azanonatriacontanoic acid] | excellent capacity to activate | improved | excellent capacity to activate |  | 
4 | NH2C(O)NH-Cys(EtOC(O)C15H31)-Ser(OH)—NH(CH2CH2O)3CH2C(O)NH-DEVSGLEQLESIINFEK(^Cy5)L-OH ({Carbamoyl-Cys(EtOC(O)C15H31)}-S[AEEEA]DEVSGLEQLESIINFEK(Cy5)L-OH) [Compound 11, Cy5 fluorophore-labeled conjugate from 28] | intact bio-activity |  | intact bio-activity |  | 
5 | NH2C(O)NH-Cys(EtOC(O)C15H31)-Ser(OH)—NH(CH2CH2O)3CH2C(O)NH-DEVSGLEQLESIINFEKL-OH ({Carbamoyl-Cys(EtOC(O)C15H31)}-S[AEEEA]DEVSGLEQLESIINFEKL-OH) [Compound 9] | intact bio-activity |  | intact bio-activity |  | 
6 | NH2C(O)NH-Cys(EtOC(O)C15H31)-Ser(OH)—O(CH2CH2O)3CH2C(O)NH-DEVSGLEQLESIINFEKL-OH ({Carbamoyl-Cys(EtOC(O)C15H31)-Ser-O(CH2CH2O)3CH2C(O)}-DEVSGLEQLESIINFEKL-OH) [Compound 8] | intact bio-activity |  | intact bio-activity |  | 
